These results are taken from patent US8058242B2, “Chimeric proteins with natriuretic activity” (The University of Queensland, priority 2004, dated 2011).

The term EC50 denotes the midpoint of the concentration-response curve.

Positions of bridges follow the written chain, without caps; N, C: chain ends. Residues, ends and D or L forms follow the SMILES beside them.

The test system of experiment [1] is conscious normotensive rabbits. The experiment is described as follows: Blood pressure and heart rate in conscious normotensive rabbits, intravenous bolus of TDT analogs (Example 17). The settings on record: i.v. bolus 0.24 mg/kg.
Experiment [2] deals with T1, NPR-A signaling in HeLa cells (Homo sapiens, UniProt P16066).
T1 construct: Cyclic GMP (cGMP) elevation in HeLa cells in response to Natriuretic Peptide stimulation; endogenous in cells; host or cells: HeLa cells
T1 sequence (P16066 33-1061): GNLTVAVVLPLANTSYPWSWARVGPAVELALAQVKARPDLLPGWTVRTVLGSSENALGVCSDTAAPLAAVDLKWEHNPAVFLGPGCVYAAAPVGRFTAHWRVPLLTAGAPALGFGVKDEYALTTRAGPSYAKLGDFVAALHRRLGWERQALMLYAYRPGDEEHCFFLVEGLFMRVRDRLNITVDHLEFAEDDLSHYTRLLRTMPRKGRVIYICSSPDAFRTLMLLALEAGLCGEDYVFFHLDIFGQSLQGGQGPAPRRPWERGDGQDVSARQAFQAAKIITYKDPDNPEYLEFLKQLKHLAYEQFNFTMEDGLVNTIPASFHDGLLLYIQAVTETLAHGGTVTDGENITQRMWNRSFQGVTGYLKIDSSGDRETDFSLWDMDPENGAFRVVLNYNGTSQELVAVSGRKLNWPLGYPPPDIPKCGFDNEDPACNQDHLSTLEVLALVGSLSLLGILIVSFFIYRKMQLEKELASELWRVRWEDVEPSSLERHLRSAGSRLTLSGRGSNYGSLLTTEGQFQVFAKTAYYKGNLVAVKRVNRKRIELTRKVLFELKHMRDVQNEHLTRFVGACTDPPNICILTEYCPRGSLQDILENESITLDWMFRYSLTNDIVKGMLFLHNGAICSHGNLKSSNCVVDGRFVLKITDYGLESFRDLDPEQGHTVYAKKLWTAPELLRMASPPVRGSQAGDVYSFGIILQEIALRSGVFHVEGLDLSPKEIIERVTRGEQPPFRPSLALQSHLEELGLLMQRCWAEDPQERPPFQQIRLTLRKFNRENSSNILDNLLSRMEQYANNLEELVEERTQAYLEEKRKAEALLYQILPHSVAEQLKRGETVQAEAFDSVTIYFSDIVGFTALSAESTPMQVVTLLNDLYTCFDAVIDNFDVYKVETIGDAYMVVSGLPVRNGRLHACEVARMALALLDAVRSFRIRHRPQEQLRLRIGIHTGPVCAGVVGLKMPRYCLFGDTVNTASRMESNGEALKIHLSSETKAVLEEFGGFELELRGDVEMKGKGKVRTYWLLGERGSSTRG
Briefly: cGMP AlphaScreen assay in HeLa cells (Examples 14, 15). It counts as cell-based. The conditions noted are these: 30 minutes at 37° C. How it is done: HeLa cells were maintained in RPMI cell culture medium (Gihco Invitrogen, Mt Waverley, Australia) supplemented with 10% Foetal Bovine Serum (Cambrex Bio Science, Rockland, USA). Upon reaching confluence, cells were sub-cultured such that they would be 70-90% confluent at time of assay.
Cyclic GMP (cGMP) elevation in HeLa cells in response to Natriuretic Peptide stimulation was performed using a cGMP AlphaScreen kit (PerkinElmer, Boston, USA), as follows for normal experiments: Cells were detached, pelleted to remove growth medium, and resuspended in Stimulation Buffer (Hank's Balanced Salt Solution, 0.1% Bovine Serum Albumin [BSA] (Sigma-Aldrich, Castle Hill, Australia), 1 mM 3-Isobutyl-1-methylxanthine [IBMX] (Sigma-Aldrich, Castle Hill, Australia)) and diluted to 6×10^6 cells per mL (30 000 cells per 5 μL). 5 μL of cells were added to wells of white 384-well OptiPlates (PerkinElmer, Boston, USA), and stimulated with increasing concentrations of peptide for 30 minutes at 37° C. Cells were then lysed with 10 μL Lysis buffer (dH2O, 0.3% Tween-20 (Sigma-Aldrich, Castle Hill, Australia), 5 mM HEPES (JRH Biosciences, Kansas, USA) and 0.1% BSA) and 5 μL acceptor bead mix (10 μL per mL acceptor beads and 1/3000 anti-cGMP antibody (BioVision, Mountain View, USA) in lysis buffer) added per well in the dark. Plates were incubated in the dark at room temperature for 30 minutes, then 5 μL donor bead mix (10 μL per ML donor beads and 0.3 nM biotinylated cGMP in lysis buffer) was added per well in the dark and the plate incubated overnight at room temperature. Signal was read using an EnVision plate reader (PerkinElmer, Boston, USA) and data analysed using Prism software. The cGMP standard curve was performed as per manufacturer's instructions.
To examine whether TNPc and synthetic analogs produced in the inventors' laboratory could stimulate NPR-A signaling, cGMP elevations in HeLa cells in response to these peptides were measured, as described above.
In general terms: Bead proximity is the source of the signal in Alpha formats.

Experiment [3] deals with denuded aortic rings, GC A receptor. The experiment is described as follows: Relaxation of noradrenaline constricted endothelium-denuded aortic rings (Example 11). The arrangement: species or system rat. The conditions noted are these: GC-A mediated. The method in brief: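 Endothelium-denuded thoracic aortic rings (5 mm) from male Sprague Dawley rats were held at 10 g tension in carbogenated physiological salt solution at 37 °C. Denudation was confirmed by under 10% ACh (10 μM) relaxation after phenylephrine (0.3 μM). Rings constricted with noradrenaline, scaled to 40 mM KCl contraction, were relaxed with increasing peptide doses, with at least 3 rings per peptide.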

Another experiment has as its system conscious rabbits. Briefly: Blood pressure and heart rate in conscious rabbits, intravenous infusion dose-response (Example 8).
The target in experiment [4] is T2, Natriuretic Peptide Receptor-A (NPR-A) signaling in MDCK cells (Canis lupus familiaris, UniProt A0A8I3MHU3).
T2 sequence (A0A8I3MHU3 32-1060): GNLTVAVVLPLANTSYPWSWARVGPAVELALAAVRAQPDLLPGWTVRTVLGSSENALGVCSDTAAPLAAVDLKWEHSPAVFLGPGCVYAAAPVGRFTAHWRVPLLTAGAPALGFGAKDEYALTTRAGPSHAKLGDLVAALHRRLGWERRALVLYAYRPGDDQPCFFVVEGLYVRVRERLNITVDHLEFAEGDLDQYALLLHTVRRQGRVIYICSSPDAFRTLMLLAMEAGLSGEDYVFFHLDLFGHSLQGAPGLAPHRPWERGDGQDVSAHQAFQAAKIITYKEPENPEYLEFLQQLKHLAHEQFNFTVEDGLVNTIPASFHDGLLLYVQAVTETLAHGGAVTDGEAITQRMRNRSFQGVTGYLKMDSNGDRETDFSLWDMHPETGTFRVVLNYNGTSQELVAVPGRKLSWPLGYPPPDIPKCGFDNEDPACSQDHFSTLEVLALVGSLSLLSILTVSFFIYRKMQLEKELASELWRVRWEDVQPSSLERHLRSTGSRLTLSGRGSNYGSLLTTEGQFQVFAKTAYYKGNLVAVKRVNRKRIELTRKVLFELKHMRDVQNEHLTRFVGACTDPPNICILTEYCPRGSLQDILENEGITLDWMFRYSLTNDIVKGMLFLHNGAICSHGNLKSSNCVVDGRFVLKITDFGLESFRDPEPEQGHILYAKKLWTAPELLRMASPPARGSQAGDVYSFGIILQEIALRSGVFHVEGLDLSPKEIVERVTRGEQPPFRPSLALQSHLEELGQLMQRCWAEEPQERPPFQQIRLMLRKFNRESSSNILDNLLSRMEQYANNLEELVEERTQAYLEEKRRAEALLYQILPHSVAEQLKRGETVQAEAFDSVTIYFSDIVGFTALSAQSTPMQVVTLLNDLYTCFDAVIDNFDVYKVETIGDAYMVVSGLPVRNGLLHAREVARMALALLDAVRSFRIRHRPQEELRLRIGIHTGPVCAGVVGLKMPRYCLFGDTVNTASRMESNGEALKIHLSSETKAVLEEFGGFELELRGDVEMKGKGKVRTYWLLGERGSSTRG
It counts as cell-based, canine. The conditions noted are these: stimulation of cGMP accumulation in MDCK cells.

The mark [5] stands for this setting: after a 2 hour recovery period, Table 10B.

As for `CC[C@H](C)[C@H](NC(=O)[C@H](CCCCN)NC(=O)[C@H](CO)NC(=O)[C@H](CC(=O)O)NC(=O)[C@@H](N)CO)C(=O)NCC(=O)N[C@@H](CC(N)=O)C(=O)NCC(=O)N[C@H]1CSSC[C@@H](C(=O)N[C@@H](CC(N)=O)C(=O)N[C@@H](CCCNC(=N)N)C(=O)N[C@H](C(=O)N[C@@H](CCSC)C(=O)N[C@@H](CCC(N)=O)C(=O)N[C@@H](CC(N)=O)C(=O)N2CCC[C@H]2C(=O)N2CCC[C@H]2C(=O)N[C@@H](CCCCN)C(=O)N[C@@H](CCCCN)C(=O)N[C@@H](Cc2ccccc2)C(=O)N[C@@H](CO)C(=O)NCC(=O)N[C@@H](CCC(=O)O)C(=O)O)[C@@H](C)CC)NC(=O)CNC(=O)[C@H](CC(C)C)NC(=O)[C@H](CC(N)=O)NC(=O)[C@H](CO)NC(=O)[C@H](C(C)C)NC(=O)[C@H](Cc2c[nH]cn2)NC(=O)[C@H](CC(N)=O)NC(=O)[C@H]([C@@H](C)CC)NC(=O)[C@H](CCCNC(=N)N)NC(=O)[C@H](CC(=O)O)NC(=O)[C@H]([C@@H](C)CC)NC(=O)[C@H](CCCCN)NC(=O)[C@H](CCCNC(=N)N)NC(=O)CNC(=O)[C@H](Cc2ccccc2)NC1=O` [H12R-TDT], in experiment [1], the “HR, mean difference from control” value was −7±5 b/min and the “time after administration at which the MAP effect occurred, on average” value stood at 97 min. Also, the “MAP, mean difference from control” value in experiment [1] (at MAP minimum) is on record as −9.2±2.2 mmHg.

In the case of `CC[C@H](C)[C@H](NC(=O)[C@H](CCCCN)NC(=O)[C@H](CO)NC(=O)[C@H](CC(=O)O)NC(=O)[C@@H](N)CO)C(=O)NCC(=O)N[C@@H](CC(N)=O)C(=O)NCC(=O)N[C@H]1CSSC[C@@H](C(=O)N[C@@H](CC(N)=O)C(=O)N[C@@H](CCCNC(=N)N)C(=O)N[C@H](C(=O)N[C@@H](CCSC)C(=O)N[C@@H](CCC(N)=O)C(=O)N[C@@H](CC(N)=O)C(=O)N2CCC[C@H]2C(=O)N2CCC[C@H]2C(=O)N[C@@H](CCCCN)C(=O)N[C@@H](CCCCN)C(=O)N[C@@H](Cc2ccccc2)C(=O)N[C@@H](CO)C(=O)NCC(=O)N[C@@H](CCC(=O)O)C(=O)O)[C@@H](C)CC)NC(=O)CNC(=O)[C@H](CC(C)C)NC(=O)[C@H](CC(N)=O)NC(=O)[C@H](CO)NC(=O)[C@H](C)NC(=O)[C@H](Cc2c[nH]cn2)NC(=O)[C@H](CC(N)=O)NC(=O)[C@H]([C@@H](C)CC)NC(=O)[C@H](CCCNC(=N)N)NC(=O)[C@H](CC(=O)O)NC(=O)[C@H]([C@@H](C)CC)NC(=O)[C@H](CCCCN)NC(=O)[C@H](Cc2c[nH]cn2)NC(=O)CNC(=O)[C@H](Cc2ccccc2)NC1=O` [V20A-TDT] (H-SDSKIGNGCFGHKIDRINHASNLGCNRIMQNPPKKFSGE-OH; disulfide 9-25), the 50% effective concentration (EC50) in experiment [2] (EC50, cGMP accumulation in HeLa cells) was 455 nM; in experiment [2] (−Log10EC50 (pEC50) ± Standard Error, cGMP accumulation in HeLa cells) it was 382 nM.

For the compound `CC[C@H](C)[C@@H]1NC(=O)[C@H](CCCNC(=N)N)NC(=O)[C@H](CC(=O)O)NC(=O)[C@H](CC(C)C)NC(=O)[C@@H]2CCCN2C(=O)[C@H](Cc2ccccc2)NC(=O)CNC(=O)[C@H](Cc2ccccc2)NC(=O)[C@@H](NC(=O)[C@@H]2CCCN2C(=O)[C@H](CC(=O)O)NC(=O)[C@H](Cc2ccc(O)cc2)NC(=O)[C@H](CCCCN)NC(=O)[C@@H](NC(=O)[C@@H](N)CCC(=O)O)C(C)C)CSSC[C@@H](C(=O)N[C@@H](CC(N)=O)C(=O)N[C@@H](CCCNC(=N)N)C(=O)N[C@H](C(=O)N[C@@H](CCSC)C(=O)N[C@@H](CCC(N)=O)C(=O)N[C@@H](CC(N)=O)C(=O)N2CCC[C@H]2C(=O)N2CCC[C@H]2C(=O)N[C@@H](CCCCN)C(=O)N[C@@H](CCCCN)C(=O)N[C@@H](Cc2ccccc2)C(=O)N[C@@H](CO)C(=O)NCC(=O)N[C@@H](CCC(=O)O)C(=O)O)[C@@H](C)CC)NC(=O)CNC(=O)[C@H](CC(C)C)NC(=O)CNC(=O)[C@H](CO)NC(=O)[C@H](C(C)C)NC(=O)[C@H](CO)NC(=O)CNC1=O` [TNPc DTT] (H-EVKYDPCFGFPLDRIGSVSGLGCNRIMQNPPKKFSGE-OH; disulfide 7-23; N-terminus assumed), the “Mean relaxation SEM of denuded aortic rings expressed as % of KCl response” value in experiment [3] is reported as 58.9 ± 6.7%. Further, the “recovery of MAP, in words” value in the experiment with conscious rabbits (2 hours after infusion) is “partially recovered”. Besides, the “MAP at final dose” value in the experiment with conscious rabbits (Table 10B) is reported as 58.6 mm Hg. For the same compound, in the experiment with conscious rabbits (setting [5]), the “Recovery (MAP)” value came out at 70.3 mm Hg and the “Recovery Delta SED (MAP)” value is recorded as 11.7 ± 5.2 mm Hg. The “Treatment Effect, change of mean blood pressure during the infusion” value in the experiment with conscious rabbits (final dose, Table 10B, groups 2B and 2C) is on record as −12.4 mm Hg. For the same compound, the “−Log10 EC50 (pEC50) ± Standard Error” value in experiment [4] came out at 7.723 ± 0.1425. Further, the EC50 in experiment [4] (read-out: EC50 (M) ± Standard Error) came to 2.12e-08 M.
